These results are taken from publication PMC6170196 (Clinical pharmacology and therapeutics, 2012).

This data set is classed as in vivo, human. The following applies: flurbiprofen 100 mg oral, n=12.
Where [1] appears, read: arithmetic mean, Fluconazole/ placebo.
The mark [2] stands for this setting: arithmetic mean, Pom extract/ placebo.
Where [3] appears, read: arithmetic mean, Pom juice/ placebo.
The mark [4] stands for this setting: geometric mean, Fluconazole/ placebo.
[5] abbreviates: geometric mean, Pom extract/ placebo.
[6] abbreviates: geometric mean, Pom juice/ placebo.

Like-named read-outs stand apart in the source and are kept apart here. Marks after values point to notes of the source that are not given here.

With `CC(C(=O)O)c1ccc(-c2ccccc2)c(F)c1` (stereo not drawn) [FLURBIPROFEN, Flurbiprofen], the Cmax ratio by setting is: under setting [1], 1.57 ^*; under setting [2], 1.08; under setting [3], 1.09; under setting [4], 1.47; under setting [5], 1.03; under setting [6], 1.03. Also, the “Total AUC ratio” value is reported as 2.04 ^* under setting [1]; 1.09 under setting [2]; 1.08 under setting [3]; 1.97 under setting [4]; 1.06 under setting [5]; 1.05 under setting [6].
